The source of these data is the NIST ThermoML archive (doi:10.1021/je4001944).

The conditions of the data set: 101 kPa, Liquid.

The structures appear in SMILES notation. Numbers after ± are expanded uncertainties.

As for `CCCCCC[n+]1ccn(C)c1.O=S(=O)([N-]S(=O)(=O)C(F)(F)F)C(F)(F)F`, the mass density (as a rule, mass per unit of volume) is, setting by setting: (298.15 K) 1391 ± 11 kg/m3; (308.15 K) 1373 ± 11 kg/m3; (323.15 K) 1340 ± 10 kg/m3.
For `CCCCCCCCn1cc[n+](C)c1.O=S(=O)([N-]S(=O)(=O)C(F)(F)F)C(F)(F)F`, in that order: 1343 ± 11 kg/m3, 1323 ± 10 kg/m3 and 1287 ± 10 kg/m3.
As for `CCCCCCCCCCn1cc[n+](C)c1.O=S(=O)([N-]S(=O)(=O)C(F)(F)F)C(F)(F)F`, the mass density runs as follows: (298.15 K) 1284 ± 10 kg/m3; (308.15 K) 1256 ± 10 kg/m3; (323.15 K) 1221 ± 10 kg/m3.
